# Assay results taken from PubChem BioAssay (NCI).
# Several values for one entry are separate records, joined by “and”; a condition that tells them apart may be missing. Identical values can stand only once.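 Assay format: 96-well plates, 48-hour exposure. At the GI50, growth is halved. Definition used: TGI = concentration required for complete inhibition of growth.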
# Columns and labels:
# Assay in all cases: DTP human tumour cell line panel, 48 h
# ACHN renal = tested on: ACHN renal
# CAKI-1 renal = tested on: CAKI-1 renal
# CCRF-CEM leukemia = tested on: CCRF-CEM leukemia
# HT29 colon = tested on: HT29 colon
# K-562 leukemia = tested on: K-562 leukemia
# M14 melanoma = tested on: M14 melanoma
# MALME-3M melanoma = tested on: MALME-3M melanoma
# MCF7 breast = tested on: MCF7 breast
# MOLT-4 leukemia = tested on: MOLT-4 leukemia
# TK-10 renal = tested on: TK-10 renal
SMILES,TGI (ACHN renal) [µM],TGI (CAKI-1 renal),TGI (CCRF-CEM leukemia) [µM],TGI (HT29 colon) [µM],TGI (K-562 leukemia) [µM],TGI (M14 melanoma) [µM],TGI (MALME-3M melanoma) [µM],TGI (MCF7 breast) [µM],TGI (MOLT-4 leukemia) [µM],TGI (TK-10 renal) [µM],GI50 (ACHN renal) [µM],GI50 (CAKI-1 renal) [µM],GI50 (CCRF-CEM leukemia) [µM],GI50 (HT29 colon) [µM],GI50 (K-562 leukemia) [µM],GI50 (M14 melanoma) [µM],GI50 (MALME-3M melanoma) [µM],GI50 (MCF7 breast) [µM],GI50 (MOLT-4 leukemia) [µM],GI50 (TK-10 renal) [µM]
Cc1cc(=O)[nH]c2c1C(=O)c1c(C)cc(=O)n(C)c1C2=O,0.223,0.258 µM,> 10,0.208,> 10,0.0282,0.00494,0.0356,> 3.56,0.418,,,,,,,,,,
CN1CCC(C(=O)Nc2n[nH]c3nnc(-c4ccccc4)cc23)CC1,> 25,> 25 µM,> 25,> 25,> 25,> 25,> 25,> 25,> 25,> 25,> 25,> 25,> 25,> 17.8,> 25,> 25,> 25,10.2,> 25,> 25
COc1ccc2c(c1)CCC1C2CCC2(C)C(NC(=O)CCCCC3CCSS3)CCC12 (stereo not given),> 100,> 100 µM,> 100,39.2,> 100,> 100,> 100,> 100,> 100,> 100,27.6,23.9,6.26,4.3,5.81,16.8,92.2,39.7,4.15,16.1
CC(C)OC(=O)c1cc(NC(=S)OC(C)C)ccc1Cl,> 59.7,35.3 µM,> 96.3,38.6,> 100,> 79.6,> 56.9,> 53,> 79.2,52.4,,,,,,,,,,
COc1cc(C(=O)/C=C/c2c(C)n([O-])c3ccc(Cl)cc3[n+]2=O)cc(OC)c1OC,18,> 100 µM,18.3,> 100,> 100,> 100,> 100,> 100,27.9,> 100,4.37,10.3,2.14,3.94,3.09,4.59,36.3,3.37,3.06,7.83
COc1ccc(-c2nn(-c3cccc(Cl)c3)cc2-c2c(C#N)c(=O)n3[nH]c(-c4ccc(C)o4)nc3c2C#N)cc1,> 50,> 50 µM,> 50,33.6,> 50,22.4,41.1,> 50,24.3,> 50,7.61,6.8,2.45,7.21,4.09,5.49,7.88,1.75,3.23,12.4
c1ccc2[nH]c(-c3cscn3)nc2c1,> 100,> 100 µM and 37.2 µM,> 100,> 100,> 100,> 100,> 100,> 100,> 100,> 100,,,,,,,,,,
Nc1nc2c([nH]1)c1[nH]c3ccccc3c1c1[nH]c3ccccc3c21,24.4,29.5 µM,12.4,17.4,5.09,27.8,4.45,21.1,6.16,37.7,12,16,3.33,5.5,2.23,14.4,1.86,4.47,1.89,22.7
NCC[PH+](c1ccccc1)c1ccccc1.NCC[PH+](c1ccccc1)c1ccccc1.[Cl-].[Pt+4],> 100,> 100 µM,> 73.2,> 100,> 84.7,> 100,> 100,> 100,> 100,> 100,> 100,> 100,12.2,85,26.5,> 100,> 100,> 100,> 51.3,> 100
Cn1cc(C2=C(c3cccc([N+](=O)[O-])c3)C(=O)NC2=O)c2ccccc21,> 25,> 25 µM,> 25,> 25,> 25,> 25,> 25,> 25,> 22.8,> 25,4.88,5.5,7.19,7.29,4.85,12.4,13.6,3.17,7.18,12.1
